Numbers after ± are expanded uncertainties.
Conditions: 298.15 K, 101.33 kPa, Liquid; for viscosity: Capillary tube (Ostwald / Ubbelohde) method

| viscosity | mass density (Vibrating tube method) | mass density | SMILES |
| --- | --- | --- | --- |
| 97.58 ± 4 mPa·s | 1237.63 ± 8.3 kg/m3 |  | CCOS(=O)(=O)[O-].CCn1cc[n+](C)c1 [1-ethyl-3-methylimidazolium ethyl sulfate] |
| 1.082 ± 0.009 mPa·s |  | 785.46 ± 0.47 kg/m3 | CCO [ethanol] |
